# Test results taken from patent US10053721B2, “Antimicrobial resistance status determination device and method” (bioMerieux, Inc., priority 2015, dated 2018).
# Like-named read-outs stand apart in the source and are kept apart here.
# Tests used:
# Format in all cases: cell-based
# S. aureus strains = test: Methicillin-resistant Staphylococcus aureus (MRSA) assay, optical density growth curves; details: 6 μg/mL cefoxitin
# Procedure: The BacT/ALERT® SA bottles were inoculated as described in Example A. The positive broth dilution for the MRSA Assay was performed as follows: broth containing a S. aureus isolate was diluted 1:20 into glass tubes containing 9.0 mL of pre-warmed CAMBH, 0.05% saponin and ±6 μg/mL cefoxitin. Ten (10) S. aureus strains representing diverse phenotypes were tested (5 resistant and 5 sensitive).
# (§1) Each strain was sub-cultured without the drug as a growth control. The resistance assay tubes (15 mL tubes fitted with septum screw-caps for diluting and sampling) were incubated in a custom-built, heated, rocking optical density unit, placed within a resistance module, and time-dependent changes in the optical at 660 nm of each culture tube were measured every 45 seconds for periods of up to 12 hours. To maximize microbial growth and minimize measurement noise, tubes were rocked between +/−18 degrees from horizontal at 36 cycles/min for 30 seconds, then returned to the upright position for 15 seconds before an optical density reading was taken.
# To detect MRSA directly from positive blood cultures, 10 broth samples containing S. aureus strains representing diverse phenotypes were sub-cultured for up to 12 hours with and without 6 μg/mL of cefoxitin (5 resistant and 5 sensitive strains).
# To better discriminate microbial growth from background increases in media optical density, slopes of the growth curves were calculated and plotted (FIGS. 7B, 7D, and 7F).
# E. faecium strains = test: Vancomycin-resistant enterococci (VRE) assay, optical density growth curves; details: 6 μg/mL vancomycin; all 17 resistant E. faecium strains
# Procedure: (§2) The BacT/ALERT® SA bottles were inoculated as described in Example A. The positive broth dilution for the […] was performed as follows: broth containing E. faecium or E. faecalis isolates was spun for 10 seconds @10,600 g in a 1.5 mL microcentrifuge tube to sediment red blood cells (RBC). One (1.0) mL of the RBC depleted supernatant was recovered and diluted into 4.0 mL of pre-warmed BacT/ALERT® SA media±6 μg/mL vancomycin. Thirty-one (31) E. faecium and 7 E. faecalis strains were tested (23 resistant and 15 sensitive).
# (§3) To rapidly detect VRE in positive blood cultures, 38 broth samples containing E. faecium and E. faecalis strains were depleted of red blood cells and then diluted 1:5 in BacT/ALERT® SA blood culture media with and without 6 μg/mL of vancomycin (23 resistant and 15 sensitive strains).
# E. faecalis strains = test: as above
# Procedure: as §2, §3
# [1] = system: van B containing E. faecalis strains; test: MIC of van B containing E. faecalis strains
# [2] = system: K. pneumoniae or E. coli isolates; test: Carbapenem-resistant Enterobacteriaceae (CRE) assay, optical density at 660 nm over time; details: 4 ug/mL imipenem; 8 strains harboring carbapenemase genes
# Procedure: BacT/ALERT® SA bottles were inoculated with 10 mL of SPS-anticoagulated normal human blood and seeded with <100 CFU of S. aureus, E. faecalis, E. faecium, E. coli and K. pneumoniae isolates. Within 15 minutes of flagging positive, the bottles were manually unloaded and either tested immediately or kept on ice until tested. If chilled, a positive bottle was warmed in a 36° C. water bath for 15-20 minutes before removing samples. The positive broth dilutions were performed manually. […]
# as §1, with “taken. […]” for “taken.”
smiles,measurement,setting,value
CO[C@@]1(NC(=O)Cc2cccs2)C(=O)N2C(C(=O)O)=C(COC(N)=O)CS[C@@H]21 [cefoxitin],time to growth in cefoxitin media,S. aureus strains; 3 of the 5 MRSA strains,≤ 2 h
same,growth in cefoxitin media,"S. aureus strains; 5 sensitive S. aureus strains, by 12 hours",failed to grow
same,slopes of the growth curves,"S. aureus strains; 5 sensitive strains, after 60 min equilibration, over 720 min",decreasing or flat slopes
same,time to growth in cefoxitin media,S. aureus strains; Positive Control MRSA strain ATCC 43300,≤ 2.5 h
same,time to growth in cefoxitin media,S. aureus strains; weakly resistant MRSA strain (E-test MIC=16 ug/mL),≤ 4.5 h
CN[C@H](CC(C)C)C(=O)N[C@H]1C(=O)N[C@@H](CC(N)=O)C(=O)N[C@H]2C(=O)N[C@H]3C(=O)N[C@H](C(=O)N[C@H](C(=O)O)c4cc(O)cc(O)c4-c4cc3ccc4O)[C@H](O)c3ccc(c(Cl)c3)Oc3cc2cc(c3O[C@@H]2O[C@H](CO)[C@@H](O)[C@H](O)[C@H]2O[C@H]2C[C@](C)(N)[C@H](O)[C@H](C)O2)Oc2ccc(cc2Cl)[C@H]1O [vancomycin],time to detection of growth with vancomycin,E. faecium strains,≤ 2 h
same,time to detection of growth with vancomycin,"E. faecalis strains; 6 μg/mL vancomycin, three low MIC van B containing E. faecalis strains",3 to 4 h
same,time to detection of growth with vancomycin,"E. faecalis strains; delayed van B isolates, starting subculture optical density raised from <0.10 to 0.25-0.45, data not shown",2 to 2.5 h
same,MIC,"[1]; CLSI Positive Control strain ATCC 51299, in µg/mL",16-24
same,MIC,"[1]; Enterococcus faecalis, three van B containing E. faecalis strains, read-out: MIC",16 to 64 µg/mL
C[C@@H](O)[C@H]1C(=O)N2C(C(=O)O)=C(SCCN=CN)C[C@H]12 [imipenem],time to growth in the presence of imipenem,[2],≤ 2 h
